The subject of assay [1] is shock avoidance acquisition in the rat. Put plainly: Antagonism of shock avoidance acquisition in the rat (antipsychotic activity). In kind it is in vivo. The conditions noted are these: ip, read-out: Antagonism of Avoidance Acquisition, Rats, ED50 (A). The procedure:
(§1) To predict the potential ability of a drug to cause EPS, the ratio of its ED50 (i.p.) for antagonism of amphetamine-induced rotation to its ED50 (i.p.) for blockade of shock avoidance acquisition in the rat, a procedure for assessing antipsychotic activity, (R/A ratio) is calculated.

Assay [2] deals with striatal dopamine receptors. The assay can be described thus: Antagonism of amphetamine-induced rotation in rats with unilateral substantia nigra lesions (Ungerstedt). The format is in vivo, rat. The conditions noted are these: i.p.
Source text: There is evidence that antipsychotic drugs cause EPS by interfering with neurotransmission in a nigrostriatal dopaminergic pathway. It is thought that they block dopamine receptors in the neostriatum. Therefore, the ability of a drug to block striatal dopamine receptors is a measure of its EPS liability.
To assess the potency of drugs in blocking striatal dopamine receptors a procedure was used which was developed by Ungerstedt [Ungerstedt and Arbuthnott, Brain Res. 24 485 (1970); Ungerstedt, Acta physiol. scand., Suppl. 367, 49 (1971)] using rats with unilateral lesions of the substantia nigra induced by injection of 6-hydroxydopamine. This treatment causes degeneration of the nigrostriatal dopaminergic pathway accompanied by a marked decrease in the dopamine content of the neostriatum on the side of the lesion. Animals with this lesion develop postural and motor asymmetries which are altered by drugs which affect dopaminergic activity. Amphetamine, which releases dopmine and norepinephrine from catecholaminergic neurons, causes these rats to rotate unidirectionally toward the side of the lesion. Since there is a much larger amount of dopamine to be released by amphetamine from the intact nigrostriatal neurons on the non-lesioned side than from those remaining on the lesioned side, the rotational behavior is apparently due to the preponderance of activation of striatal dopamine receptors on the intact side. The ability of a drug to antagonize the rotational behavior is therefore a measure of its ability to block striatal dopamine receptors and is indicative of its potential to produce EPS.
as §1

In assay [3] the test system is amphetamine-induced rotation vs. avoidance acquisition. Put plainly: R/A ratio: ED50 amphetamine-induced rotation / ED50 avoidance acquisition. The format is in vivo, rat. The conditions noted are these: ratio of i.p. ED50 values in rats. The procedure: as §1
Setting [4] is: rats, i.p., piperidylidene derivatives (Table II).
[5] abbreviates: piperidylidene derivatives (Table II).
Setting [6] is: clinically established antipsychotics (Table I).

Structures are written as SMILES. Where two headings read alike, the source gives them in different places.

For orientation: ED50 means the dose at which the effect has come halfway, by size or by number of responders. As to `CCCCN1CCC(=C2c3ccccc3Oc3ccc(Br)cc32)CC1` [XXXII, 4-(2-bromo-9-xanthenylidene)-1-n-butylpiperidine], the median effective dose (ED50) in assay [1] (setting [4]) stood at 0.6 mg/kg. In addition, in assay [2] (setting [5]), the “Antagonism of Amphetamine-induced Rotation, Rats, ED50 (R)” value (“Antagonism” for short) worked out at 3.0 mg/kg. Further, the R/A ratio in assay [3] (setting [5]) was 5.0.

As for `CN1CCC(=C2c3ccccc3Oc3ccc(F)cc32)CC1` [VIII, 4-(2-fluoro-9-xanthenylidene)-1-methylpiperidine], the ED50 in assay [1] (setting [4]) is 0.71 mg/kg. In addition, the “Antagonism” value in assay [2] (setting [5]) worked out at 5.6 mg/kg. For the same molecule, the R/A ratio in assay [3] (setting [5]) is recorded as 7.9.

As for `O=C(CCCN1CCC(O)(c2ccc(Cl)cc2)CC1)c1ccc(F)cc1` [Haloperidol, reference compound], the “Antagonism” value in assay [2] (setting [6]) amounted to 0.05 mg/kg. The R/A ratio in assay [3] (setting [6]) stood at 0.31.

In the case of `CN1CCC(=C2c3ccccc3Sc3cc(Cl)ccc32)CC1` [III, 4-(3-chloro-9-thioxanthenylidene)-1-methylpiperidine], in assay [1] (setting [4]), the ED50 was determined as 5.3 mg/kg. Besides, the “Antagonism” value in assay [2] (setting [5]) is recorded as 30.8 mg/kg. In addition, in assay [3] (setting [5]), the R/A ratio worked out at 5.8.

`Brc1ccc2c(c1)C(=C1CCNCC1)c1ccccc1O2` [XXV, 4-(2-bromo-9-xanthenylidene)-piperidine]: the ED50 in assay [1] (setting [4]) was found to be 0.6 mg/kg. Moreover, the “Antagonism” value in assay [2] (setting [5]) worked out at 4.0 mg/kg. Also, in assay [3] (setting [5]), the R/A ratio stood at 6.7.

Regarding `CCCCN1CCC(=C2c3ccccc3Oc3ccc(C(F)(F)F)cc32)CC1` [XXXI, 4-(2-trifluoromethyl-9-xanthenylidene)-1-n-butylpiperidine], the ED50 in assay [1] (setting [4]) turned out to be 0.1 mg/kg. For the same molecule, the “Antagonism” value in assay [2] (setting [5]) was determined as 1 mg/kg. Besides, the R/A ratio in assay [3] (setting [5]) turned out to be 10.

Turning to `OCCN1CCC(=C2c3ccccc3Sc3ccc(Cl)cc32)CC1` [IX, 4-(2-chloro-9-thioxanthenylidene)-1-(β-hydroxyethyl)piperidine], the ED50 in assay [1] (setting [4]) came to 0.26 mg/kg. Also, the “Antagonism” value in assay [2] (setting [5]) was 1.22 mg/kg. In addition, in assay [3] (setting [5]), the R/A ratio is listed as 4.7.

As to `CCN1CCC(=C2c3ccccc3Sc3ccc(Cl)cc32)CC1` [XVII, 4-(2-chloro-9-thioxanthenylidene)-1-ethylpiperidine], the ED50 in assay [1] (setting [4]) was found to be 0.5 mg/kg. For the same molecule, in assay [2] (setting [5]), the “Antagonism” value worked out at 5.0 mg/kg. Moreover, in assay [3] (setting [5]), the R/A ratio is given as 10.0.

On to `CN1CCC(=C2c3ccccc3Sc3cc(F)ccc32)CC1` [XIII, 4-(3-fluoro-9-thioxanthenylidene)-1-methylpiperidine], for which the ED50 in assay [1] (setting [4]) came out at 3 mg/kg. Moreover, in assay [2] (setting [5]), the “Antagonism” value turned out to be 17.7 mg/kg. The R/A ratio in assay [3] (setting [5]) turned out to be 5.8.

For the molecule `CN1CCC(=C2c3ccccc3Oc3ccc(C(F)(F)F)cc32)CC1` [VI, 1-methyl-4-(2-trifluoromethyl-9-xanthenylidene)-piperidine], the ED50 in assay [1] (setting [4]) was found to be 0.07 mg/kg. In addition, the “Antagonism” value in assay [2] (setting [5]) is 0.26 mg/kg. For the same molecule, in assay [3] (setting [5]), the R/A ratio amounted to 3.7.

`CN1CCC(=C2c3ccccc3Sc3ccc(Cl)cc32)CC1` [I, 4-(2-chloro-9-thioxanthenylidene)-1-methylpiperidine]: the median effective dose (ED50) in assay [1] was determined as 0.7 mg/kg. Moreover, in assay [2] (setting [5]), the “Antagonism” value is on record as 14.2 mg/kg. Also, the R/A ratio in assay [3] (setting [5]) was determined as 20.3.

Take `CN1CCC(=C2c3ccccc3Oc3ccc(C#N)cc32)CC1` [XI, 4-(2-cyano-9-xanthenylidene)-1-methylpiperidine]: in assay [1] (setting [4]), the ED50 is 0.09 mg/kg. In addition, the “Antagonism” value in assay [2] (setting [5]) is given as 0.29 mg/kg. Further, in assay [3] (setting [5]), the R/A ratio is 3.2.

Regarding `O=c1[nH]c2ccccc2n1C1CCN(CCCC(c2ccc(F)cc2)c2ccc(F)cc2)CC1` [Pimozide, reference compound], the “Antagonism” value in assay [2] (setting [6]) amounted to 0.08 mg/kg. For the same molecule, the R/A ratio in assay [3] (setting [6]) amounted to 0.30.

For `CCCCN1CCC(=C2c3ccccc3Sc3ccc(Cl)cc32)CC1` [XVIII, 4-(2-chloro-9-thioxanthenylidene)-1-n-butylpiperidine], the ED50 in assay [1] (setting [4]) came out at 0.94 mg/kg. In addition, the “Antagonism” value in assay [2] (setting [5]) is recorded as 3.1 mg/kg. Also, the R/A ratio in assay [3] (setting [5]) was found to be 3.3.

Consider `CCCN1CCC(=C2c3ccccc3Oc3ccc(Cl)cc32)CC1` [XXIII, 4-(2-chloro-9-xanthenylidene)-1-n-propylpiperidine], for which, in assay [1] (setting [4]), the ED50 came to 0.6 mg/kg. For the same molecule, in assay [2] (setting [5]), the “Antagonism” value is 2.4 mg/kg. The R/A ratio in assay [3] (setting [5]) came out at 4.0.

Turning to `CN1CCC(=C2c3ccccc3Oc3ccc(Br)cc32)CC1` [X, 4-(2-bromo-9-xanthenylidene)-1-methylpiperidine], the ED50 in assay [1] (setting [4]) was 0.3 mg/kg. Further, the “Antagonism” value in assay [2] (setting [5]) is 1.6 mg/kg. The R/A ratio in assay [3] (setting [5]) is listed as 5.3.

With `Clc1ccc2c(c1)C(=C1CCNCC1)c1ccccc1O2` [XX, 4-(2-chloro-9-xanthenylidene)-piperidine], the ED50 in assay [1] (setting [4]) was found to be 1.7 mg/kg. For the same molecule, in assay [2] (setting [5]), the “Antagonism” value was 8.1 mg/kg. Moreover, in assay [3] (setting [5]), the R/A ratio is recorded as 4.8.

`CN1CCC(=C2c3ccccc3Oc3ccc(Cl)cc32)CC1` [IV, 4-(2-chloro-9-xanthenylidene)-1-methylpiperidine]: the ED50 in assay [1] (setting [4]) came out at 0.23 mg/kg. The “Antagonism” value in assay [2] (setting [5]) came to 2.8 mg/kg. For the same molecule, the R/A ratio in assay [3] (setting [5]) came out at 12.2.

In the case of `OCCN1CCC(=C2c3ccccc3Oc3ccc(Cl)cc32)CC1` [XXII, 4-(2-chloro-9-xanthenylidene)-1-(β-hydroxyethyl)-piperidine], the median effective dose (ED50) in assay [1] (setting [4]) is 0.2 mg/kg. Moreover, the “Antagonism” value in assay [2] (setting [5]) is 1.3 mg/kg. In assay [3] (setting [5]), the R/A ratio came out at 6.5.

Turning to `OCCN1CCC(=C2c3ccccc3Oc3ccc(Br)cc32)CC1` [XXVI, 4-(2-bromo-9-xanthenylidene)-1-(β-hydroxyethyl)-piperidine], the ED50 in assay [1] (setting [4]) is 0.6 mg/kg. Also, in assay [2] (setting [5]), the “Antagonism” value amounted to 2.1 mg/kg. Besides, in assay [3] (setting [5]), the R/A ratio came to 3.5.

With `CN1CCC(=C2c3ccc(Cl)cc3Oc3ccc(F)cc32)CC1` [XVI, 4-(6-chloro-2-fluoro-9-xanthenylidene)-1-methylpiperidine], in assay [1] (setting [4]), the ED50 stood at 0.15 mg/kg. In assay [2] (setting [5]), the “Antagonism” value worked out at 1.12 mg/kg. In addition, the R/A ratio in assay [3] (setting [5]) was 7.5.

Consider `OCCCN1CCC(=C2c3ccccc3Oc3ccc(Cl)cc32)CC1` [XXX, 4-(2-chloro-9-xanthenylidene)-1-(3-hydroxypropyl)-piperidine], for which the ED50 in assay [1] (setting [4]) amounted to 0.2 mg/kg. Besides, the “Antagonism” value in assay [2] (setting [5]) worked out at 0.78 mg/kg. Besides, in assay [3] (setting [5]), the R/A ratio was determined as 3.9.

Consider `CN(C)CCCN1c2ccccc2Sc2ccc(Cl)cc21` [Chlorpromazine, reference compound], for which the “Antagonism” value in assay [2] (setting [6]) is recorded as 2.0 mg/kg. The R/A ratio in assay [3] (setting [6]) is reported as 1.3.

For the molecule `CCN1CCC(=C2c3ccccc3Oc3ccc(Cl)cc32)CC1` [XXI, 4-(2-chloro-9-xanthenylidene)-1-ethylpiperidine], the ED50 in assay [1] (setting [4]) came out at 0.5 mg/kg. Also, the “Antagonism” value in assay [2] (setting [5]) worked out at 1.8 mg/kg. In assay [3] (setting [5]), the R/A ratio is 3.6.

As to `CN1CCC(=C2c3ccccc3Sc3ccc(C#N)cc32)CC1` [XXVIII, 4-(2-cyano-9-thioxanthenylidene)-1-methylpiperidine], the ED50 in assay [1] (setting [4]) amounted to 0.16 mg/kg. In assay [2] (setting [5]), the “Antagonism” value was 0.67 mg/kg. In assay [3] (setting [5]), the R/A ratio came to 4.0.

With `CN1CCC(=C2c3ccc(Cl)cc3Sc3ccc(F)cc32)CC1` [XV, 4-(6-chloro-2-fluoro-9-thioxanthenylidene)-1-methylpiperidine], the ED50 in assay [1] (setting [4]) was found to be 0.6 mg/kg. Moreover, the “Antagonism” value in assay [2] (setting [5]) is on record as 8.7 mg/kg. Besides, the R/A ratio in assay [3] (setting [5]) was 14.5.

Turning to `CSc1ccc2c(c1)C(=C1CCN(C)CC1)c1ccccc1O2` [V, 1-methyl-4-(2-methylthio-9-xanthenylidene)piperidine], the ED50 in assay [1] (setting [4]) amounted to 0.6 mg/kg. For the same molecule, the “Antagonism” value in assay [2] (setting [5]) was found to be 1.8 mg/kg. Besides, the R/A ratio in assay [3] (setting [5]) is given as 3.0.

On to `CSc1ccc2c(c1)C(=C1CCN(C)CC1)c1ccccc1S2` [II, 1-methyl-4-(2-methylthio-9-thioxanthenylidene)-piperidine], for which, in assay [1], the ED50 came to 0.2 mg/kg. Also, in assay [2] (setting [5]), the “Antagonism” value stood at 3.7 mg/kg. In addition, in assay [3] (setting [5]), the R/A ratio was 18.5.

On to `CN1CCC(=C2c3ccccc3Sc3ccc(Br)cc32)CC1` [XIV, 4-(2-bromo-9-thioxanthenylidene)-1-methylpiperidine], for which the ED50 in assay [1] (setting [4]) amounted to 0.3 mg/kg. Further, the “Antagonism” value in assay [2] (setting [5]) is given as 2.7 mg/kg. Further, in assay [3] (setting [5]), the R/A ratio turned out to be 9.0.

`CN1CCN(CCCN2c3ccccc3Sc3ccc(C(F)(F)F)cc32)CC1` [Trifluoperazine, reference compound]: the R/A ratio in assay [3] (setting [6]) is recorded as 0.46.
